Laboratory results as given in PMC6571972 (Pharmaceutics, 2019).
Read-outs that look alike come from different tables or passages of the source.

Key:
[1] = mouse; cited from earlier work
[2] = test system: AtT20/D16v-F2 murine pituitary tumor cells; experiment: in vitro cytotoxicity, MTT assay; type: cell-based
Procedure: In vitro cytotoxicity: To evaluate the cytotoxicity of conjugates and metabolites, AtT20/D16v-F2 murine pituitary tumor cells obtained from American Type Culture Collection (ATCC, Bethesda, MD, USA) were used. Cell viability was determined using the MTT (3-(4,5-dimethyl thiaz ol-2-yl)-2,5-diphenyltetrazolium bromide) assay. Briefly, cells in DMEM supplemented with 10% FBS, 1% L-glutamine, and 1% penicillin/streptomycin were seeded in 96-well culture plates (3000 cells/well) and incubated overnight in a humidified, 37 °C, 5% CO2 atmosphere to allow for adherence. The following day, cells were treated with serial dilutions of each compound starting at 100 nM for free drugs and 1000 nM for each one of the conjugates and incubated as described for 2 h. 0.1% DMSO served as a control. After incubation, the cells were washed once, media replaced, and incubation continued for further 70 h. At the end of treatment, 5 µL of MTT solution (5 mg/mL in deionized H2O, Sigma #M5655) was added to each well and the cells were incubated for another 2 h. Finally, 100 µL of lysis buffer (10% SDS, 10 mM HCl) was added, and the cells were placed in the incubator overnight for the formazan crystal solubilization. Absorbance at 540 nm was measured using a FLUOstar Omega (BMG Labtech) microplate reader and the growth inhibition ratio was calculated. Blank controls detecting cell-free media absorbance were performed in parallel. Three experimental replicates were used. The half-maximal inhibitory concentration values (IC50) were obtained from viability curves while using GraphPad Prism 6. Cell viability was expressed as percentage relative to the respective control conditions.

[3] = cited from earlier work
[4] = test system: AtT20 xenografts; experiment: in vivo tumor targeting, whole body imaging; set-up: species or system nude mice; conditions: 1 mg/kg i.v.
Procedure: Tumor targeting studies: The fluorescence-labeled conjugate 10 (1 mg/kg in 2% DMSO in water) was intravenously injected in nude mice bearing AtT20 tumors. At each time point, whole body imaging was acquired using the Lago optical imaging system (Spectral Instruments Imaging), while mice were under isoflurane anesthesia (2.5%/20% O2).
(§1) Figure S1. Confocal microscopy images from conjugate 10 in SSTR2 positive cell line […]
(§2) Animal experiments were approved by the Committee for Animal Experiments of the […]
(§3) For in vivo tumor targeting and antitumor efficacy experiments, three million AtT20/D16v-F2 murine pituitary tumor cells in 100 µL PBS/Matrigel (v/v) were xenografted in the right flank of four-weeks-old female BALB/c nude mice (BALB/cAnNRj-Foxn1nu/nu, Janvier Labs). The experiments started around 15 days after implantation, when the animals started to show physical signs of the hormone releasing […]

[5] = target: T1, human SSTR2 (Homo sapiens, UniProt P30874); experiment: radioligand binding competition assay with SSTR2 membrane extract; conditions: competition with 3-[125I] iodotyrosyl11 Somatostatin 14, CHO-K1-SST2 membranes; for IC50: read-out: Binding Affinity (IC50 in nM)
T1 construct: membrane extract (recombinant CHO-K1-SST2 (NP_001041.1), 25 µL, 0.2 µg); expressed in transfected cells; host or cells: CHO-K1
Procedure: The dilution of test compound (50 µL, maximum final DMSO concentration 3%), radioligand 3-[125I] iodotyrosyl11 Somatostatin 14 (Perkin Elmer, NEX389, 25 µL, 0.4 nM), and membrane extract (recombinant CHO-K1-SST2 (NP_001041.1), 25 µL, 0.2 µg) were successively added to a 96-well plate and then incubated at 25 °C for 60 min. It was filtered over GF/B Unifilter plate (Perkin Elmer, 6005177, pre-soaked in 0.5% PEI for 2 h at room temperature) with a Filtermate Harvester (Perkin Elmer). After rinsing the filters six times with 0.5 mL of ice-cold washing buffer (25 mM HEPES pH 7.4, 5 mM MgCl2, 1 mM CaCl2), 50 µL of Microscint 20 (Packard) was added to the filters and the samples were incubated 15 min on an orbital shaker and then counted with a TopCount™ for 1 min/well. The binding affinity was determined in duplicates by plotting the dose-response data to a nonlinear regression with variable slope.

[6] = test system: A549 cells; experiment: live cell confocal microscopy, conjugate internalization in A549 cells; type: cell-based, human; conditions: A549 cells with low levels of SSTR2, 1 µM
[7] = test system: AtT20 cells; experiment: live cell confocal microscopy, conjugate internalization in AtT20 cells; type: cell-based, murine
[8] = plasma stability in murine plasma; type: in vitro ADME; conditions: mouse, 37 °C, read-out: Plasma Stability (t1/2 in h) Murine (converted)
Procedure: (§4) Plasma stability: The sample preparation and the metabolic analysis of the conjugates was carried out similarly to the previously described method. Shortly, in a 96-well plate each conjugate and the control compound, procaine (3 mM, stock solution in DMSO) in three replicates were diluted with 250 μL of plasma to give a 3 µM concentration and then incubated at 37 °C. At each sample collecting time point, an aliquot of 30 µL was transferred into a 96-deep well plate and the reaction was stopped with 120 µL of acetonitrile containing 0.1% formic acid and 0.4 µg/mL of warfarin as the internal standard (IS). This mixture was centrifuged at 1100 ×g for 30 min at 4 °C and 50 µL of supernatant was transferred into a clean 96 deep-well plate and diluted with 50 µL of 0.1% formic acid in water. The samples were stored at -80 °C until analyses. Stability was determined based on LC-HRMS analysis of the disappearance of the compound as a function of incubation time, while using area ratio (analyte peak area vs internal standard peak area). The elimination constant k is calculated by plotting mean disappearance values on a semi-logarithmic scale and fitting with a best fit linear regression. The half-life (t1/2) expressed in hours is derived using the equation: t1/2 = ln2/(−k).

[9] = plasma stability in human plasma; type: in vitro ADME; conditions: 37 °C, read-out: Plasma Stability (t1/2 in h) Human (converted)
Procedure: as §4

[10] = in vivo; conditions: mouse
From the text: Dose escalation experiments determined the maximum tolerated dose of the conjugate.

[11] = test system: AtT20 tumors; experiment: in vivo antitumor efficacy; set-up: species or system BALB/c nude mice; conditions: 5 mg/kg i.v. once weekly for three weeks, AtT20 tumor-bearing mice
Procedure: as §1, §2, §3
In vivo antitumor efficacy
Animals bearing AtT20 tumors were randomized in three treatment groups (n=9) and injected intravenously with 5 mg/kg of conjugate 8 in 2% DMSO in water or a mix of […]
Treatment was given once a week for a total of three weeks. Vehicle treatment was used as control. Mice were weighed, and the tumor sizes were monitored with an electronic caliper. Tumor volume was calculated using the ellipsoid formula ν = π/6ꞏxꞏyꞏz.
Figure S2. In vivo antitumor efficacy of conjugate 8 compared to vehicle and unconjugated mix of cryptophycin and octreotide (left), and body weight quantification during treatment (right). […]

[12] = pharmacokinetics after i.v. injection; type: in vivo; conditions: 2.5 mg/kg i.v., heterozygous NCR mice
Procedure: Pharmacokinetics: To evaluate the pharmacokinetic profile of conjugate 8 and its fluorescence-labeled analogue 10, four-weeks-old female heterozygous NCR mice from Charles River were used. Animals were intravenously injected with 2.5 mg/kg (in 2% DMSO in water, dosed at 0.5 mg/mL) of each conjugate. Terminal blood samples were collected via cardiac puncture from animals under deep anesthesia at different time points (5, 15, 30, 60, 180, and 360 min, n = 3). The samples were rapidly transferred to lithium heparin-coated tubes, kept on ice, and subsequently centrifuged at 2000 ×g, 4 °C for 10 min. After centrifugation, plasma was collected and the samples were kept at -20 °C until analyses.

[13] = target: T2, cathepsin B from bovine spleen (Bos taurus, UniProt P07688); experiment: cathepsin B degradation; type: in vitro ADME; conditions: cathepsin B 1 U/mL
T2 construct: cathepsin B from bovine spleen (Sigma Aldrich, C6286); purchased Sigma Aldrich C6286; host or cells: bovine spleen (tissue-derived)
Procedure: (§5) Cathepsin B degradation: An aqueous solution of L-cysteine (0.28 M) was diluted 1:10 in acetate buffer/EDTA 1 mM pH 5.5, to achieve a working solution of 28 mM of L-cysteine. This solution was used to dilute cathepsin B from bovine spleen (Sigma Aldrich, C6286) to 1.11 U/mL. The cathepsin B solution was pre-incubated at 37 °C for 15 min and then split into 45 µL aliquots in Eppendorf tubes, with two replicates for each incubation time. 5 µL of substrate solution (50 µM in MeOH/H2O (1:1)) were added to each tube for a final concentration of 5 µM. Tubes corresponding to t0 contained 100 µL of 1% HCOOH in MeOH and they were put in an ice bath to inhibit the reaction. All of the other tubes were incubated at 37 °C in an oscillating thermostatic bath and the reaction was stopped at the following incubation times: 0.25, 0.5, 1, 2, 4, and 6 h, as described for the t0 samples. The samples were then centrifuged for 10 min at 14000 rpm at 4 °C and filtered through regenerated cellulose syringe filters prior to injection in the HPLC-ESI-MS system. Control solutions containing 5 µM substrate in acetate buffer pH 5.5/EDTA 1 mM/L-cysteine 28 mM were also prepared and then incubated up to 6 h at 37 °C in the absence of the enzyme to check the substrate stability under incubation conditions. Substrates and their possible cleavage products (Gly-Pro-Cry-55gly, Cry-55gly, and Cry-55) were quantified via calibration curves that were prepared in acetate buffer/EDTA/L-cysteine in the range 25–5000 nM.

[14] = cathepsin B degradation; type: in vitro ADME, bovine; conditions: acetate buffer/EDTA/L-cysteine without enzyme; acetate buffer pH 5.5/EDTA/L-cysteine, 37 °C, after 6 h; read-out: compound remaining in buffer in the absence of enzyme
Procedure: as §5

[15] = 2 h treatment, wash, further 70 h, MTT, read-out: Cytotoxicity in AtT20 (IC50 in nM)

T1 sequence (P30874 whole entry): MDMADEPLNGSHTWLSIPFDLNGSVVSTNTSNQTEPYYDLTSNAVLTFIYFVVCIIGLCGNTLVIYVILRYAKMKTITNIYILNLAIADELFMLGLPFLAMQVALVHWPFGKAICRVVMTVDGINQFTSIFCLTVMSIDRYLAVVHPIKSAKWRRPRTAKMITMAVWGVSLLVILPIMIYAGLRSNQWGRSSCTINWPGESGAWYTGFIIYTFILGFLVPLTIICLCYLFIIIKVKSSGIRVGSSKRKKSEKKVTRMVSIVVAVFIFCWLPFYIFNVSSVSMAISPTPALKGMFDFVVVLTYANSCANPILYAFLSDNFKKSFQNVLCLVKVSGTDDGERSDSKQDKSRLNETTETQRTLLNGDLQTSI

SMILES: COc1ccc(C[C@H]2NC(=O)/C=C/C[C@@H]([C@H](C)[C@@H](OC(=O)CN)[C@@H](Cl)c3ccccc3)OC(=O)[C@H](CC(C)C)OC(=O)C(C)(C)CNC2=O)cc1Cl [compound 3, cryptophycin-55 glycinate]
- Plasma Stability (t1/2 in h) Murine [1]: > 24 [48] h
- IC50 ([2]; Mus musculus, AtT20, read-out: Cytotoxicity in AtT20 (IC50 in nM)): 3.53 nM
- Plasma Stability (t1/2 in h) Human [3]: > 24 [48] h

SMILES: CC(C)[C@H](NC(=O)CCOCCOCCOCCOCCn1cc(CCC(=O)N[C@H](Cc2ccccc2)C(=O)N[C@H]2CSSC[C@@H](C(=O)N[C@H](CO)[C@@H](C)O)NC(=O)[C@H]([C@@H](C)O)NC(=O)[C@H](CCCCN)NC(=O)[C@@H](Cc3c[nH]c4ccccc34)NC(=O)[C@H](Cc3ccccc3)NC2=O)nn1)C(=O)N[C@@H](CCCNC(N)=O)C(=O)NCC(=O)N1CCC[C@H]1C(=O)NCCCCCCNC(=O)CCCCC[N+]1=C(/C=C/C=C/C=C2N(C)c3ccc4ccccc4c3C2(C)C)C(C)(C)c2c1ccc1ccccc21 [compound 10]
- accumulation in the tumor ([4]; AtT20 xenografts): preferential accumulation
- duration of detection in tumor ([4]; tumors around 50 mm^3): up to seven
- Binding Affinity (IC50 in nM) [5]: low nanomolar IC50
- internalization of the conjugate [6]: no internalization was observed
- internalization of the conjugate with excess free ligand ([7]; AtT20 cells, 100-fold excess of free octreotide): could be efficiently competed
- internalization of the conjugate ([7]; SSTR2 expressing AtT20 cells, 1 µM, after 10 min): effective internalization

SMILES: COc1ccc(C[C@H]2NC(=O)/C=C/C[C@@H]([C@H](C)[C@@H](OC(=O)CNC(=O)CNC(=O)[C@@H]3CCCN3C(=O)[C@H](CCCNC(N)=O)NC(=O)[C@@H](NC(=O)CCOCCOCCOCCOCCn3cc(CCC(=O)N[C@H](Cc4ccccc4)C(=O)N[C@H]4CSSC[C@@H](C(=O)N[C@H](CO)[C@@H](C)O)NC(=O)[C@H]([C@@H](C)O)NC(=O)[C@H](CCCCN)NC(=O)[C@@H](Cc5c[nH]c6ccccc56)NC(=O)[C@H](Cc5ccccc5)NC4=O)nn3)C(C)C)[C@@H](Cl)c3ccccc3)OC(=O)[C@H](CC(C)C)OC(=O)C(C)(C)CNC2=O)cc1Cl [compound 7]
- half-life at 3 µM [8]: 0.5 h
- half-life at 3 µM [9]: 23 h
- IC50 [5]: 0.6 nM
- IC50 [2, 15]: 51.2 nM

SMILES: COc1ccc(C[C@H]2NC(=O)/C=C/C[C@@H]([C@H](C)[C@@H](OC(=O)CNC(=O)[C@@H]3CCCN3C(=O)CN)[C@@H](Cl)c3ccccc3)OC(=O)[C@H](CC(C)C)OC(=O)C(C)(C)CNC2=O)cc1Cl [Gly-Pro-Cry-55gly]
- IC50 ([2]; Mus musculus, AtT20, 2 h treatment, wash, further 70 h, MTT, read-out: Cytotoxicity in AtT20 (IC50 in nM)): 6.05 nM

SMILES: COc1ccc(C[C@H]2NC(=O)/C=C/C[C@@H]([C@H](C)[C@@H](OC(=O)CNC(=O)[C@@H]3CCCN3C(=O)CNC(=O)[C@H](CCCNC(N)=O)NC(=O)[C@@H](NC(=O)CCOCCOCCOCCOCCn3cc(CCC(=O)N[C@H](Cc4ccccc4)C(=O)N[C@H]4CSSC[C@@H](C(=O)N[C@H](CO)[C@@H](C)O)NC(=O)[C@H]([C@@H](C)O)NC(=O)[C@H](CCCCN)NC(=O)[C@@H](Cc5c[nH]c6ccccc56)NC(=O)[C@H](Cc5ccccc5)NC4=O)nn3)C(C)C)[C@@H](Cl)c3ccccc3)OC(=O)[C@H](CC(C)C)OC(=O)C(C)(C)CNC2=O)cc1Cl [compound 8]
- half-life at 3 µM [8]: > 24 h
- MTD [10]: ≥ 10 mg/kg
- half-life at 3 µM [9]: 24 h
- IC50 [5]: 1.3 nM
- antitumor efficacy (tumor volume) [11]: no therapeutic benefit
- IC50 [2, 15]: 8.37 nM
- area under the curve (AUC), comparison of 8 with 10 [12]: higher
- half-life ([12]; female, mouse, plasma, iv, read-out: circulatory half-life): 1.73 h
- cleavage by cathepsin B ([13]; 5 µM compound, 37 °C): readily cleaved
- release of cryptophycin-55 glycinate by self-immolation after cleavage ([13]; up to 6 h): no cryptophycin-55 glycinate (3) was found
- remaining at 6 h, 5 µM [14]: 90%
